Assay results: PubChem BioAssay AID180 (DTP/NCI, 2004)
Values joined by “and” are separate entries in the source; they are usually repeats but may differ in a detail not shown here. Equal entries are not always repeated.

Test system: BDF1 mice, Adenocarcinoma 755 s.c., tumor weight T/C
Assay: NCI In Vivo Anticancer Drug Screen. Data for tumor model Adenocarcinoma 755 (subcutaneous) in B6D2F1 (BDF1) mice
Details: endpoint: mean tumor weight, schedule: Q01DX011 (ip), higher = larger tumour
Method in brief: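 In vivo antitumor screen on a transplantable tumor line. Result equals the measure in compound-treated animals divided by the same measure in vehicle controls.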

[1] = dose: 25.0 mg/kg/injection, vehicle: methylcellulose (MC)
[2] = dose: 50.0 mg/kg/injection, vehicle: methylcellulose (MC)
[3] = dose: 100.0 mg/kg/injection, vehicle: methylcellulose (MC)
[4] = dose: 400.0 mg/kg/injection, vehicle: other

## CC(C)CSc1nc(N)nc2c1ncn2CC(C)C
[1]
  T/C: 21 % of control
[2]
  T/C: 12 % of control
[3]
  T/C: 1 % of control

## Nc1nc([S-])c2nc[nH]c2n1.Nc1nc([S-])c2nc[nH]c2n1.Nc1nc([S-])c2nc[nH]c2n1.[Pt]
dose: 1.0 mg/kg/injection, vehicle: carboxymethylcellulose (CMC)
  T/C: 44 % of control
dose: 1.3 mg/kg/injection, vehicle: carboxymethylcellulose (CMC)
  T/C: 65 % of control
dose: 2.0 mg/kg/injection, vehicle: carboxymethylcellulose (CMC)
  T/C: 19 % of control
dose: 2.5 mg/kg/injection, vehicle: carboxymethylcellulose (CMC)
  T/C: 12 % of control
dose: 4.0 mg/kg/injection, vehicle: carboxymethylcellulose (CMC)
  T/C: 2 % of control

## O=C1NC(=O)C(c2ccc(Cl)cc2)(c2ccccc2Cl)N1 (configuration not stated)
dose: 50.0 mg/kg/injection, vehicle: saline
  T/C: 91 % of control
dose: 100.0 mg/kg/injection, vehicle: saline
  T/C: 82 % of control
dose: 125.0 mg/kg/injection, vehicle: carboxymethylcellulose (CMC)
  T/C: 81 % of control
dose: 200.0 mg/kg/injection, vehicle: saline
  T/C: 58 % of control and 77 % of control
dose: 250.0 mg/kg/injection, vehicle: carboxymethylcellulose (CMC)
  T/C: 28 % of control
[4]
  T/C: 71 % of control
dose: 500.0 mg/kg/injection, vehicle: carboxymethylcellulose (CMC)
  T/C: 81 % of control
dose: 800.0 mg/kg/injection, vehicle: other
  T/C: 30 % of control
dose: 800.0 mg/kg/injection, vehicle: saline
  T/C: 76 % of control
dose: 1600.0 mg/kg/injection, vehicle: saline
  T/C: 107 % of control

## NCC(N)=O
dose: 100.0 mg/kg/injection, vehicle: other
  T/C: 86 % of control
dose: 200.0 mg/kg/injection, vehicle: other
  T/C: 79 % of control
[4]
  T/C: 56 % of control

## O=C(Nc1ccc(C2=NCCN2)cc1)c1ccc(C(=O)Nc2ccc(C3=NCCN3)cc2)cc1
dose: 3.3 mg/kg/injection, vehicle: methylcellulose (MC)
  T/C: 122 % of control
dose: 6.5 mg/kg/injection, vehicle: methylcellulose (MC)
  T/C: 113 % of control

## CCCNc1cc(=O)[nH]c(N)n1
dose: 55.0 mg/kg/injection, vehicle: methylcellulose (MC)
  T/C: 110 % of control
dose: 165.0 mg/kg/injection, vehicle: methylcellulose (MC)
  T/C: 41 % of control

## O=C1CN(/N=C\c2ccc([N+](=O)[O-])o2)C(=O)N1
dose: 4.74 mg/kg/injection, vehicle: carboxymethylcellulose (CMC)
  T/C: 111 % of control
dose: 8.03 mg/kg/injection, vehicle: carboxymethylcellulose (CMC)
  T/C: 96 % of control
dose: 9.48 mg/kg/injection, vehicle: carboxymethylcellulose (CMC)
  T/C: 121 % of control
dose: 12.5 mg/kg/injection, vehicle: methylcellulose (MC)
  T/C: 83 % of control
dose: 16.05 mg/kg/injection, vehicle: carboxymethylcellulose (CMC)
  T/C: 115 % of control
dose: 18.95 mg/kg/injection, vehicle: carboxymethylcellulose (CMC)
  T/C: 94 % of control
[1]
  T/C: 61 % of control
dose: 25.68 mg/kg/injection, vehicle: carboxymethylcellulose (CMC)
  T/C: 68 % of control
dose: 35.0 mg/kg/injection, vehicle: carboxymethylcellulose (CMC)
  T/C: 84 % of control
dose: 37.9 mg/kg/injection, vehicle: carboxymethylcellulose (CMC)
  T/C: 80 % of control
dose: 42.8 mg/kg/injection, vehicle: carboxymethylcellulose (CMC)
  T/C: 41 % of control
dose: 45.0 mg/kg/injection, vehicle: carboxymethylcellulose (CMC)
  T/C: 64 % of control
[2]
  T/C: 75 % of control
dose: 56.0 mg/kg/injection, vehicle: carboxymethylcellulose (CMC)
  T/C: 98 % of control
dose: 64.0 mg/kg/injection, vehicle: carboxymethylcellulose (CMC)
  T/C: 72 % of control
dose: 75.0 mg/kg/injection, vehicle: methylcellulose (MC)
  T/C: 55 % of control
[3]
  T/C: 89 % of control
